Laboratory results reported in paper PMC8250858, “A Systematic Study of the Stability, Safety, and Efficacy of the de novo Designed Antimicrobial Peptide PepD2 and Its Modified Derivatives Against Acinetobacter baumannii” (Frontiers in Microbiology, 2021).
≈ marks a conversion by molar mass, not a printed value. Read-outs that look alike come from different tables or passages of the source. Non-standard residues stand in square brackets, D forms with d. Residues, ends and D or L forms follow the SMILES beside them. *: point of attachment. Stearoyl = CCCCCCCCCCCCCCCCCC(=O)*; Palmitoyl = CCCCCCCCCCCCCCCC(=O)*; Myristoyl = CCCCCCCCCCCCCC(=O)*; Octanoyl = CCCCCCCC(=O)*; Orn = NCCC[C@H](N)C(=O)O; Hexanoyl = CCCCCC(=O)*; Butyryl = CCCC(=O)*

How the values were obtained:
Hemolytic assay = format: cell-based, rat
Description: The blood cells were washed three times with PBS, where the volume of PBS was the same as that of the original blood, by gently turning the centrifuge tube upside down. After washing, ten microliters of blood cells were diluted 2,000-fold in PBS to count the cells. Finally, red blood cells were diluted to 5 × 10^8 cells/mL in PBS. Peptides were dissolved in water and filtered through a 0.2-μm filter to make a stock solution. The peptide concentration was quantitated by the UV280. The peptide solution was diluted in PBS to different concentrations (five times the tested concentrations). Twenty microliters of the peptide in PBS was mixed with 80 μL of red blood cell solution in a 96-well plate (V-bottom). The final peptide concentration was 16–256 μg/mL. In the positive control group, 20 μL of 5% Triton X-100 was added to the red blood cell solution for a final Triton X-100 concentration of 1%. For the negative control group, 20 μL of PBS solution was added. The 96-well plate was incubated at 37°C for 45 min. After centrifuging the 96-well plate at 1,500 × g for 5 min, 30 μL of the supernatant was mixed with 100 μL of deionized water in a 96-well plate (flat bottom). The concentration of heme in each well was measured by the UV405 using an Infinite M1000 pro (Tecan Austria GmbH, Austria). The hemolytic activity was calculated using the following formula. Hemolyticactivity=[(F-F0)/(Ft-F0)]×100% F is the UV405 of the peptide-treated sample F0 is the UV405 of the sample without peptide (negative control) Ft is the UV405 of the Triton-treated sample (positive control)

A. baumannii ATCC 17978 = format: cell-based, Acinetobacter baumannii
Description: Following CLSI guideline M07-A11, single bacterial colonies of A. baumannii ATCC 17978 grown on Müller–Hinton agar (MHA) plates were picked and inoculated in 4 mL of Müller–Hinton broth (MHB) at 37°C and shaken at 180 rpm for 4∼6 h. The bacterial broth was diluted in the same medium to give a cell density of 1∼2 × 10^8 CFU/mL (OD600 = 0.38∼0.4 for A. baumannii) (Supplementary Figure 1; [Dillon et al., 2020]). Then, the broth was diluted 20-fold. Peptides were dissolved in water and filtered through a 0.2-μm filter to make a stock solution. The peptide concentration was quantified by the UV280. Then, the peptide solution was serially diluted in MHB to final peptide concentrations of 1, 2, 4, 8, 16, and 32 μg/mL. One hundred microliters of serially diluted peptide and 10 μL of bacterial culture were mixed in a 96-well polystyrene plate. Each well contained approximately 5 × 10^5 CFU/mL. The positive control was a mixture of 100 μL of MHB and 10 μL of the bacterial culture. The negative control was 110 μL of MHB. The plates were incubated at 37°C without shaking. […] The bacterium-peptide mixtures (the mixture without visible growth and the mixture containing a two-fold […] peptide concentration than the mixture without growth), positive control, and negative control (3 μL each) were spotted on an MHA plate and incubated at 37°C for 24 h. The MBC was determined as the lowest peptide concentration at which no colonies formed.
The MIC and MBC of our designed peptides against A. baumannii were obtained by using the broth microdilution method in the CLSI protocol. The bacterial cell number was carefully counted, and a final cell density of 5 × 10^5 CFU/mL in each well was used in the MIC test (Supplementary Figure 1). The minimal peptide concentration at which no bacterial growth was observed was taken as the MIC value. The culture after peptide treatment was spotted on an MHA plate, and the peptide concentration that could kill all the bacteria was defined as the MBC. The MIC/MBC and hemolytic activity of these peptides are shown and compared in Figure 1.

HEK293 cells = format: cell-based, human
Description: Cell viability assays were performed by using the CellTiter 96® AQueous Non-Radioactive Cell Proliferation Assay (Promega, United States), in which 3-(4,5-dimethylthiazol-2-yl)-5-(3-carboxymethoxyphenyl)-2-(4-sulfophenyl)-2H-tetrazolium salt (MTS) can be reduced to purple-colored formazan by intact cells. […] The test peptide was dissolved in water and filtered through a 0.2-μm filter. The peptide concentration was quantitated by the UV280 to make a 5,120 μg/mL stock solution and then serially diluted in serum-free DMEM. On the second day, the medium was replaced with 100 μL of serum-free DMEM containing different peptide concentrations and incubated for 1 or 24 h. Serum-free DMEM without peptide was used as a negative control and medium containing 1% Triton X-100 was used as a positive control. One milligram of MTS powder was dissolved in 0.5 mL of Dulbecco’s phosphate-buffered saline (DPBS). The MTS solution was mixed with one-twentieth of a phenazine methosulfate (PMS) solution ([…]). To each well, 20 μL of the MTS/PMS solution was added. After 3 h, the absorbance was measured with an Infinite M1000 pro (Tecan Austria GmbH, Austria) at a wavelength of 490 nm. Cell viability was calculated using the following equation. Cellviability=[(A-Ap)/(An-Ap)]×100% A is the UV490 of the peptide-treated sample An is the UV490 of the sample without peptide (negative control) Ap is the UV490 of the Triton-treated sample (positive control)

in vitro = in vitro ADME, rat; conditions: for half-life at 0.6 mg/mL: rat plasma, room temperature
Description: EDTA-treated rat whole blood was centrifuged at 4°C and 840 × g for 5 min, and then the blood cells were removed ([[…] et al., 2019]). The supernatant was placed in an Eppendorf tube and centrifuged at 4°C and 13,000 rpm for 10 min to remove lipids (white precipitate). The supernatant was filtered through a 0.2-μm filter. The peptide was dissolved in water and filtered through a 0.2-μm filter. The peptide concentration was quantified by the UV280 to make a 1 mg/mL stock solution. […] At the indicated time, the peptide was analyzed by HPLC with a C18 column using a linear gradient of 20-65% B over 15 min. Solution A: 5% acetonitrile plus 0.1% trifluoroacetic acid in water; solution B: 0.1% trifluoroacetic acid in acetonitrile.

[1] = rat red blood cells, 256 μg/mL peptide, 37°C 45 min, read-out: Hemolysis (%) at 256 μg/mL

| Compound | hemolysis at 45 min, 256 μg/mL (Hemolytic assay; rat) | MBC A. baumannii 17978 (A. baumannii ATCC 17978; ATCC 17978, 24 h) | other results |
| --- | --- | --- | --- |
| CCCCCCCCCCCCCCCCCC(=O)N[C@@H](Cc1c[nH]c2ccccc12)C(=O)N[C@@H](CCCCN)C(=O)N[C@@H](CCCCN)C(=O)N[C@@H](CC(C)C)C(=O)N[C@@H](CCCCN)C(=O)N[C@@H](CCCCN)C(=O)N[C@@H](CC(C)C)C(=O)N[C@@H](CC(C)C)C(=O)N[C@@H](CCCCN)C(=O)N[C@@H](CCCCN)C(=O)N[C@@H](CC(C)C)C(=O)N[C@@H](CCCCN)C(=O)N[C@@H](CCCCN)C(=O)N[C@@H](CC(C)C)C(N)=O [pepD2S] (Stearoyl-WKKLKKLLKKLKKL-NH2) | 60.7% | – | – |
| CCCC(=O)N[C@@H](Cc1c[nH]c2ccccc12)C(=O)N[C@@H](CCCCN)C(=O)N[C@@H](CCCCN)C(=O)N[C@@H](CC(C)C)C(=O)N[C@@H](CCCCN)C(=O)N[C@@H](CCCCN)C(=O)N[C@@H](CC(C)C)C(=O)N[C@@H](CC(C)C)C(=O)N[C@@H](CCCCN)C(=O)N[C@@H](CCCCN)C(=O)N[C@@H](CC(C)C)C(N)=O [pepD3B] (Butyryl-WKKLKKLLKKL-NH2) | 7.89% | 8 µg/mL (≈ 5.35 µM) | – |
| CCCCCC(=O)N[C@@H](Cc1c[nH]c2ccccc12)C(=O)N[C@@H](CCCCN)C(=O)N[C@@H](CCCCN)C(=O)N[C@@H](CC(C)C)C(=O)N[C@@H](CCCCN)C(=O)N[C@@H](CCCCN)C(=O)N[C@@H](CC(C)C)C(=O)N[C@@H](CC(C)C)C(=O)N[C@@H](CCCCN)C(=O)N[C@@H](CCCCN)C(=O)N[C@@H](CC(C)C)C(N)=O [pepD3H] (Hexanoyl-WKKLKKLLKKL-NH2) | 54.1% | 8 µg/mL (≈ 5.25 µM) | – |
| CCCCCCCCCCCCCC(=O)N[C@@H](Cc1c[nH]c2ccccc12)C(=O)N[C@@H](CCCCN)C(=O)N[C@@H](CCCCN)C(=O)N[C@@H](CC(C)C)C(=O)N[C@@H](CCCCN)C(=O)N[C@@H](CCCCN)C(=O)N[C@@H](CC(C)C)C(=O)N[C@@H](CC(C)C)C(=O)N[C@@H](CCCCN)C(=O)N[C@@H](CCCCN)C(=O)N[C@@H](CC(C)C)C(=O)N[C@@H](CCCCN)C(=O)N[C@@H](CCCCN)C(=O)N[C@@H](CC(C)C)C(N)=O [pepD2M] (Myristoyl-WKKLKKLLKKLKKL-NH2) | 93.6% | – | – |
| Ac-WKKLKKLLKKLKKL-NH2 [pepD2] | – | 8/8 μg/mL | MIC A. baumannii 17978 (A. baumannii ATCC 17978; MHB, 20 h, 5 × 10^5 CFU/mL): 8 µg/mL; MBC A. baumannii 17978 (A. baumannii ATCC 17978; spotted on MHA plate, 24 h): 8 µg/mL; hemolysis at 45 min, 256 μg/mL (Hemolytic assay; [1]): 9.6%; HEK293 IC50 (HEK293 cells; 1 h): 29.1 µg/mL; HEK293 IC50 (HEK293 cells; 24 h): 37.3 µg/mL; half-life at 0.6 mg/mL (in vitro; rat, plasma): 23.1 h |
| CC(=O)N[C@@H](Cc1c[nH]c2ccccc12)C(=O)N[C@H](CCCCN)C(=O)N[C@H](CCCCN)C(=O)N[C@H](CC(C)C)C(=O)N[C@H](CCCCN)C(=O)N[C@H](CCCCN)C(=O)N[C@H](CC(C)C)C(=O)N[C@H](CC(C)C)C(=O)N[C@H](CCCCN)C(=O)N[C@H](CCCCN)C(=O)N[C@H](CC(C)C)C(=O)N[C@H](CCCCN)C(=O)N[C@H](CCCCN)C(=O)N[C@H](CC(C)C)C(N)=O [pepdD2, Ac-Wkklkkllkklkkl-NH2] (Ac-W[dK][dK][dL][dK][dK][dL][dL][dK][dK][dL][dK][dK][dL]-NH2) | – | 8 µg/mL (≈ 4.36 µM) | hemolysis at 45 min, 256 μg/mL (Hemolytic assay; [1]): 2.9%; HEK293 IC50 (HEK293 cells; 1 h): 40.2 µg/mL; HEK293 IC50 (HEK293 cells; 24 h): 20.6 µg/mL; Extension of peptide half-life in plasma (in vitro): more than 12 fold; remaining at 72 h, 0.6 mg/mL (in vitro; rat, plasma): ~90%; half-life at 0.6 mg/mL (in vitro; rat, plasma): 290 h |
| CCCCCCCC(=O)N[C@@H](Cc1c[nH]c2ccccc12)C(=O)N[C@@H](CCCCN)C(=O)N[C@@H](CCCCN)C(=O)N[C@@H](CC(C)C)C(=O)N[C@@H](CCCCN)C(=O)N[C@@H](CCCCN)C(=O)N[C@@H](CC(C)C)C(=O)N[C@@H](CC(C)C)C(=O)N[C@@H](CCCCN)C(=O)N[C@@H](CCCCN)C(=O)N[C@@H](CC(C)C)C(N)=O [pepD3O] (Octanoyl-WKKLKKLLKKL-NH2) | 86% | 8 µg/mL (≈ 5.16 µM) | – |
| Ac-WKKLKKLLKKL-NH2 [pepD3] | – | 8 µg/mL | hemolysis at 45 min, 256 μg/mL (Hemolytic assay; [1]): 3.15%; HEK293 IC50 (HEK293 cells; 1 h): 49.5 µg/mL; HEK293 IC50 (HEK293 cells; 24 h): 68.1 µg/mL; half-life at 0.6 mg/mL (in vitro; rat, plasma): 19.1 h |
| Ac-WKKVKKVVKKVKKV-NH2 [pepV2] | 0.31% | 32 µg/mL | – |
| CC(=O)N[C@@H](Cc1c[nH]c2ccccc12)C(=O)N[C@@H](CCCN)C(=O)N[C@@H](CCCN)C(=O)N[C@@H](CC(C)C)C(=O)N[C@@H](CCCN)C(=O)N[C@@H](CCCN)C(=O)N[C@@H](CC(C)C)C(=O)N[C@@H](CC(C)C)C(=O)N[C@@H](CCCN)C(=O)N[C@@H](CCCN)C(=O)N[C@@H](CC(C)C)C(=O)N[C@@H](CCCN)C(=O)N[C@@H](CCCN)C(=O)N[C@@H](CC(C)C)C(N)=O [pepO2, Ac-WOOLOOLLOOLOOL-NH2] (Ac-W[Orn][Orn]L[Orn][Orn]LL[Orn][Orn]L[Orn][Orn]L-NH2) | 0.23% | 8 µg/mL (≈ 4.64 µM) | – |
| Ac-WRRLRRLLRRLRRL-NH2 [pepR2] | 106% | 8 µg/mL | – |
| CCCCCCCCCCCCCCCC(=O)N[C@@H](Cc1c[nH]c2ccccc12)C(=O)N[C@@H](CCCCN)C(=O)N[C@@H](CCCCN)C(=O)N[C@@H](CC(C)C)C(=O)N[C@@H](CCCCN)C(=O)N[C@@H](CCCCN)C(=O)N[C@@H](CC(C)C)C(=O)N[C@@H](CC(C)C)C(=O)N[C@@H](CCCCN)C(=O)N[C@@H](CCCCN)C(=O)N[C@@H](CC(C)C)C(=O)N[C@@H](CCCCN)C(=O)N[C@@H](CCCCN)C(=O)N[C@@H](CC(C)C)C(N)=O [pepD2P] (Palmitoyl-WKKLKKLLKKLKKL-NH2) | 83.5% | – | – |
